In US11932624B2, “MDM2 degraders and uses thereof” (Kymera Therapeutics, Inc., priority 2020, dated 2024):

Tested on: RS411 cells
Experiment: Cell Viability CTG Assay (CellTiter Glo) in RS411 cells
Assay type: cell-based
Details: Homo sapiens, RS4-11, 24 h, duration 1 day
Experimental: Example 23. Cell Viability CTG Assay
Day 0: Compounds or DMSO 60 nL were stamped to the cell plate as the platemap. RS411 cells were centrifuged at 800 rpm for 5 min, suspended with culture medium, and counted with Countess (Invitrogen). The cell density was adjusted to the recommend information. 30 μL of cell solution (1000 cells/well) was added to the assay plate as the platemap and 30 uL of media was added to column 2 and column 23 as the platemap. The plate was spun down briefly. The final concentration of the compounds started at 10 μM (3 fold dilution and 11 doses) and final DMSO concentration was 0.2%. The plate was spun down briefly and incubated at 37° C., 5% CO2 for 1-4 days.
30 μL CellTiter Glo reagent was added to each well and the plate was centrifuged at 1000 rpm for 30 sec. The plate was shaken for 1 min and centrifuged at 1000 rpm for 30 sec. The plate was incubated at RT for 10 min to stabilize the luminescent signal and the luminescence was read by EnVision.
The letter codes for IC50 indicate the concentration of compound required to affect 50% of cells: A (<0.05 μM), B (0.05-0.1 μM), C (0.1-0.5 μM), D (0.5-1.0 μM), and E (>1.0 μM).

Row | SMILES | IC50 [nM]
1 | CCCCCC1N(c2ccc(C(=O)O)cc2OC)C(=O)[C@H]2[C@H](c3cccc(Cl)c3F)[C@@](C#N)(c3ccc(Cl)cc3F)[C@H](CC(C)(C)C)N12 (stereo partly drawn) [I-91, 4-[(5S,6R,7S,7aR)-7-(3-chloro-2-fluoro-phenyl)-6-(4-chloro-2-fluoro-phenyl)-6-cyano-5-(2,2-dimethylpropyl)-1-oxo-3-pentyl-3,5,7,7a-tetrahydropyrrolo[1,2-c]imidazol-2-yl]-3-methoxy-benzoic acid] | > 1000
2 | COc1cc2c(cc1OC(C)C)C(c1ccc(Cl)cc1)N(c1ccc(N(C)C[C@H]3CC[C@H](NCC(=O)NCCCCCc4ccc5c(c4)n(C)c(=O)n5C4CCC(=O)NC4=O)CC3)cc1)C(=O)C2 (stereo partly drawn) [I-92, 2-[[4-[[4-[1-(4-Chlorophenyl)-7-isopropoxy-6-methoxy-3-oxo-1,4-dihydroisoquinolin-2-yl]-N-methyl-anilino]methyl]cyclohexyl]amino]-N-[5-[1-(2,6-dioxo-3-piperidyl)-3-methyl-2-oxo-benzimidazol-5-yl]pentyl]acetamide] | < 50
3 | CN(CCCCCc1ccc2c(c1)n(C)c(=O)n2C1CCC(=O)NC1=O)C[C@H]1CC[C@H](NC(=O)[C@@H]2NC3(CCCCC3)[C@@]3(C(=O)Nc4cc(Cl)ccc43)[C@H]2c2cccc(Cl)c2F)CC1 (stereo partly drawn) [I-93] | < 50
4 | Cn1c(=O)n(C2CCC(=O)NC2=O)c2ccc(C(=O)CC3CCN(C(=O)[C@H]4CC[C@H](NC(=O)[C@@H]5NC6(CCCCC6)[C@@]6(C(=O)Nc7cc(Cl)ccc76)[C@H]5c5cccc(Cl)c5F)CC4)CC3)cc21 (stereo partly drawn) [I-94] | < 50
5 | CN(C(=O)[C@@H]1NC2(CCCCC2)[C@@]2(C(=O)Nc3cc(Cl)ccc32)[C@H]1c1cccc(Cl)c1F)c1ccc(C(=O)NCCCCCc2ccc3c(c2)n(C)c(=O)n3C2CCC(=O)NC2=O)cc1 (stereo partly drawn) [I-96] | > 1000
6 | Cn1c(=O)n(C2CCC(=O)NC2=O)c2ccc(CCCCCNC(=O)c3ccc(NC(=O)[C@@H]4NC5(CCCCC5)[C@@]5(C(=O)Nc6cc(Cl)ccc65)[C@H]4c4cccc(Cl)c4F)cc3)cc21 (stereo partly drawn) [I-97] | < 50

Now from value to compound:

Row | IC50 [nM] | SMILES
7 | < 50 | Cn1c(=O)n(C2CCC(=O)NC2=O)c2ccc(C#CC3CCN(C(=O)[C@H]4CC[C@H](NC(=O)[C@@H]5NC6(CCC(C)(C)CC6)[C@@]6(C(=O)Nc7cc(Cl)ccc76)[C@H]5c5cccc(Cl)c5F)CO4)CC3)cc21 (stereo partly drawn) [I-83]
8 | < 50 | COc1cc2c(cc1OC(C)C)C(c1ccc(Cl)cc1)N(c1ccc(N(C)CC3CCN(CCCCCCc4cccc5c4n(C)c(=O)n5C4CCC(=O)NC4=O)CC3)cc1)C(=O)C2 (stereo not drawn) [I-84, 3-[4-[6-[4-[[4-[1-(4-Chlorophenyl)-7-isopropoxy-6-methoxy-3-oxo-1,4-dihydroisoquinolin-2-yl]-N-methylanilino]methyl]-1-piperidyl]hexyl]-3-methyl-2-oxo-benzimidazol-1-yl]piperidine-2,6-dione]
9 | < 50 | COc1cc2c(cc1OC(C)C)C(c1ccc(Cl)cc1)N(c1ccc(N(C)C[C@H]3CC[C@H](N(C)CCCCCc4ccc5c(c4)n(C)c(=O)n5C4CCC(=O)NC4=O)CC3)cc1)C(=O)C2 (stereo partly drawn) [I-85]
10 | < 50 | COc1cc2c(cc1OC(C)C)C(c1ccc(Cl)cc1)N(c1ccc(N(C)CC3CCN(CCCCCCc4ccc5c(c4)n(C)c(=O)n5C4CCC(=O)NC4=O)CC3)cc1)C(=O)C2 (stereo not drawn) [I-86]
11 | < 50 | COc1cc2c(cc1OC(C)C)C(c1ccc(Cl)cc1)N(c1ccc(N(C)C[C@H]3CC[C@H](N(C)CCCCCc4cccc5c4n(C)c(=O)n5C4CCC(=O)NC4=O)CC3)cc1)C(=O)C2 (stereo partly drawn) [I-87]
12 | < 50 | Cn1c(=O)n(C2CCC(=O)NC2=O)c2ccc(C#CC3CN(C(=O)[C@H]4C[C@H](NC(=O)[C@@H]5NC6(CCCCC6)[C@@]6(C(=O)Nc7cc(Cl)ccc76)[C@H]5c5cccc(Cl)c5F)C4)C3)cc21 (stereo partly drawn) [I-89, (3′R,4'S,5′R)-6″-chloro-4′-(3-chloro-2-fluorophenyl)-N-((1r,3R)-3-(3-((1-(2,6-dioxopiperidin-3-yl)-3-methyl-2-oxo-2,3-dihydro-1H-benzo[d]imidazol-5-yl)ethynyl)azetidine-1-carbonyl)cyclobutyl)-2″-oxodispiro[cyclohexane-1,2′-pyrrolidine-3′,3″-indoline]-5′-carboxamide]
